Measured values as given in patent US9169254B2, “Spiroimidazolone derivative” (Chugai Seiyaku Kabushiki Kaisha, priority 2009, dated 2015).

Biological target: T1, human PTH1 receptor (Homo sapiens, UniProt Q03431)
T1 sequence (Q03431 27-593): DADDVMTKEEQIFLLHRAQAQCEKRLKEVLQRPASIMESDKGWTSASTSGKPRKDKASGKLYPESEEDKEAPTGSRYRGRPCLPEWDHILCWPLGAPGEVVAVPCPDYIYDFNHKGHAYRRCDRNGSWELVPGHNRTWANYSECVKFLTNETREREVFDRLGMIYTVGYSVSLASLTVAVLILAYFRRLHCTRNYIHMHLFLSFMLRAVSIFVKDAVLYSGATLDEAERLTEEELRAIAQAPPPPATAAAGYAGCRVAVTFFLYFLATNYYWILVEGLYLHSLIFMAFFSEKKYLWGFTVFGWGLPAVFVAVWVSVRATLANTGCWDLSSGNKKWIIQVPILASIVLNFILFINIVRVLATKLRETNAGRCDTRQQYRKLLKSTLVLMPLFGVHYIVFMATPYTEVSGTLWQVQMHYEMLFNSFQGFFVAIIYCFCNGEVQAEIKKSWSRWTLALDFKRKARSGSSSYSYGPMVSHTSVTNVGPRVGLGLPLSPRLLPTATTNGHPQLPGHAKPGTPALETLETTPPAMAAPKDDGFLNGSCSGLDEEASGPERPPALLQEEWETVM
Test: In vitro cAMP signal activity in HKRK-B7 cells (LLC-PK1 cells overexpressing the human PTH1 receptor)
Format: cell-based
Settings: HKRK-B7 cells; compound at 1×10^−3 M; cAMP produced as percentage of that produced by hPTH(1-34) at 100 nM

cAMP production activity (%)	SMILES
38%	Cc1cc(NCCN(C)C)ccc1/C=C/S(=O)(=O)N1CCC2(CC1)N=C(C1CCCCC1)NC2=O [Compound 497, 2-cyclohexyl-8-{(E)-2-[4-(2-dimethylamino-ethylamino)-2-methyl-phenyl]-ethenesulfonyl}-1,3,8-triaza-spiro[4.5]dec-1-en-4-one]
53%	CC(=O)NCCNC(=O)CNc1ccc(/C=C/S(=O)(=O)N2CCC3(CC2)N=C(C2CCCCC2)NC3=O)c(C(F)(F)F)c1 [Compound 498, N-(2-acetylamino-ethyl)-2-{4-[(E)-2-(2-cyclohexyl-4-oxo-1,3,8-triaza-spiro[4.5]dec-1-ene-8-sulfonyl)-vinyl]-3-trifluoromethyl-phenylamino}-acetamide]
40%	O=C1NC(C2CCCCC2)=NC12CCN(S(=O)(=O)/C=C/c1cc3nc[nH]c3cc1C(F)(F)F)CC2 [Compound 499, 2-cyclohexyl-8-[(E)-2-(6-trifluoromethyl-1H-benzimidazol-5-yl)-ethenesulfonyl]-1,3,8-triaza-spiro[4.5]dec-1-en-4-one]
61%	CC1(C)OC[C@H](Cn2ccc3c(/C=C/S(=O)(=O)N4CCC5(CC4)N=C(C4CCCCC4)NC5=O)c(F)ccc32)O1 [Compound 500, 2-cyclohexyl-8-{(E)-2-[1-((S)-2,2-dimethyl-[1,3]dioxolan-4-ylmethyl)-5-fluoro-1H-indol-4-yl]-ethenesulfonyl}-1,3,8-triaza-spiro[4.5]dec-1-en-4-one]
59%	CN(CCO)c1ccc(/C=C/S(=O)(=O)N2CCC3(CC2)N=C(C2CCCCC2)NC3=O)c(C(F)(F)F)c1 [Compound 501, 2-cyclohexyl-8-((E)-2-{4-[(2-hydroxy-ethyl)-methyl-amino]-2-trifluoromethyl-phenyl}-ethenesulfonyl)-1,3,8-triaza-spiro[4.5]dec-1-en-4-one]
14%	Cc1cc(C(=O)N2CCS(=O)(=O)CC2)ccc1/C=C/S(=O)(=O)N1CCC2(CC1)N=C(C1CCCCC1)NC2=O [Compound 502, 2-cyclohexyl-8-{(E)-2-[4-(1,1-dioxo-1λ^6-thiomorpholine-4-carbonyl)-2-methyl-phenyl]-ethenesulfonyl}-1,3,8-triaza-spiro[4.5]dec-1-en-4-one]
67%	Cc1cc(S(=O)(=O)NCCN(C)C)ccc1/C=C/S(=O)(=O)N1CCC2(CC1)N=C(C1CCCCC1)NC2=O [Compound 503, 4-[(E)-2-(2-cyclohexyl-4-oxo-1,3,8-triaza-spiro[4.5]dec-1-ene-8-sulfonyl)-vinyl]-N-(2-dimethylamino-ethyl)-3-methyl-benzenesulfonamide]
60%	Cc1cc(N2C(=O)CNC2=O)ccc1/C=C/S(=O)(=O)N1CCC2(CC1)N=C(C1CCC(C)CC1)NC2=O (stereo not shown) [Compound 504, 3-(3-methyl-4-{(E)-2-[2-(4-methyl-cyclohexyl)-4-oxo-1,3,8-triaza-spiro[4.5]dec-1-ene-8-sulfonyl]-vinyl}-phenyl)-imidazolidine-2,4-dione]
61%	Cc1cc(N2C(=O)CN(C)C2=O)ccc1/C=C/S(=O)(=O)N1CCC2(CC1)N=C(C1CCC(C)CC1)NC2=O (stereo not shown) [Compound 505, 1-methyl-3-(3-methyl-4-{(E)-2-[2-(4-methyl-cyclohexyl)-4-oxo-1,3,8-triaza-spiro[4.5]dec-1-ene-8-sulfonyl]-vinyl}-phenyl)-imidazolidine-2,4-dione]
83%	CC(=O)Nc1ccc(/C=C/S(=O)(=O)N2CCC3(CC2)N=C(C2CCC(C)CC2)NC3=O)c(OC(C)C)c1 (stereo not shown) [Compound 506, N-(3-isopropoxy-4-{(E)-2-[2-(4-methyl-cyclohexyl)-4-oxo-1,3,8-triaza-spiro[4.5]dec-1-ene-8-sulfonyl]-vinyl}-phenyl)-acetamide]
